Reference: US6087346A, “Sigma receptor ligands and the use thereof” (Cambridge Neuroscience, Inc., priority 1996, dated 2000)
Where a name gives a salt, the structure may show the parent alone. Read-outs that look alike come from different tables or passages of the source.

Tests used:
sigma-1 receptor [1] = molecular target: T1, sigma-1 receptor (Cavia porcellus, UniProt Q60492); settings: pH 8
Procedure: (§1) Non-specific binding was determined in the presence of 10 μM haloperiodol. For the standard equilibrium assay the mixtures were incubated for 4-5 hours at 37° C., quenched with 4 ml of ice cold incubation buffer and rapidly filtered over Whatman GF/B glass fiber filters, followed by three 4 ml rinses with additional ice cole incubation buffer.

sigma-2 receptor = molecular target: T2, sigma-2 receptor (Cavia porcellus, UniProt H0V073); test: Sigma-2 binding assay ([^3 H]DTG in the presence of (+)pentazocine); parameters: species or system guinea pig
T2 construct: of guinea pig brain membranes in a total volume of 0.5 ml; from tissue; host or cells: guinea pig brain membranes
T2 sequence (H0V073 1-176): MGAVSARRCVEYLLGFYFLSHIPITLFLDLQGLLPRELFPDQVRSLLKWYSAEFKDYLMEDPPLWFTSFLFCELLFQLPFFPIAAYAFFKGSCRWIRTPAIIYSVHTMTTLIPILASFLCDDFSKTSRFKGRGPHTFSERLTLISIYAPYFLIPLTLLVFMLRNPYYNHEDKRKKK
Text: Protocols of the Sigma-1 and Sigma-2 binding assays employed are as follows:

[2] = molecular target: sigma receptor (sigma-1 and sigma-2 sites); test: Sigma receptor binding assay ([^3 H]DTG, guinea pig brain membrane homogenates); settings: for IC50: Example 3 table, tested by the [^3 H]DTG assay of Example 2; for Ki: Table II, [^3 H]DTG 1.4 nM, guinea pig brain membranes, pH 7.4, 90 minutes room temperature, IC50 values indicated as Ki, read-out: Ki nM (± SEM)
Procedure: Briefly, frozen whole guinea-pig brains (Biotrol, Indianapolis, Ind.) were homogenized in 10 volumes (w/v) of ice-cold 320 mM sucrose using a Brinkman® polytron. The homogenate was centrifuged at 1,000× g for 20 minutes at 4° C. The supernatant was centrifuged at 20,000× g for 20 minutes at 4° C. The resulting pellet was resuspended in 10 initial volumes of 50 mM Tris/HCI buffer at pH 7.4 and centrifuged at 20,000× g for 20 minutes at 4° C. The resulting pellet was resuspended in 5 initial volumes ice-cold 50 mM Tris/HCl (pH 7.4), and the final volume was adjusted to yield a protein concentration of 3 mg/mL.
The protein concentration in the 1-ml final incubation volume was 800 μg/ml, corresponding to 32 mg of brain tissue (original wet weight) and to a tissue concentration within the linear range for specific binding.
The volume of the assays may be changed, specifically halved, so long as the concentrations of the constituents remain the same. […] Incubations were terminated after 90 minutes at room temperature by addition of 4 ml of ice-cold 50 mM Tris/HCI (pH 7.4) and rapid filtration of the membrane suspension through Whatman® GF/B or Schieicher & Schuell #32 glass-fiber filters under vacuum, using a 48-well cell harvester (Brandel). The filters were washed 2 times with 4 mL of 50 mM Tris/HCI (pH 7.4). Each filter was suspended in 10 ml Cytoscint (ICI), and radioactivity was measured by liquid scintillation spectrometry at a counting efficiency of approximately 50%. IC50 values (indicated as Ki in Tables II below) were determined by non-linear regression analysis.

sigma-1 receptor [3] = molecular target: T1, sigma-1 receptor; test: biochemical
Procedure: as §1

sigma-1 site = sigma-1 site (Cavia porcellus, UniProt Q60492); settings: Hellewell and Bowen (1990); cited from earlier work
sigma-1 site, sequence (Q60492 whole entry): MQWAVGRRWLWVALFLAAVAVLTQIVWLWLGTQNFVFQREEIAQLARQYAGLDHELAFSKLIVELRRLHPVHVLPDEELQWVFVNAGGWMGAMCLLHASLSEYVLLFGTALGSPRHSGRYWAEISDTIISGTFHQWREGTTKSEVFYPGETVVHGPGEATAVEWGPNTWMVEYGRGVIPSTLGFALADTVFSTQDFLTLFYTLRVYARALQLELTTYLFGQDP

[4] = system: NMDA-induced toxicity and seizures; settings: in vivo; Pontecorvo et al.; cited from earlier work
PCP receptors = settings: cited from earlier work
opiate receptors = settings: cited from earlier work
sigma sites = settings: in words; cited from earlier work
gerbils = settings: in vivo, Rao et al.; cited from earlier work
[5] = system: NMDA-type of glutamate receptors; settings: Rao et al.; cited from earlier work
DA sites = settings: cited from earlier work

T1 sequence (Q60492 whole entry): as above

SMILES | IC50 (sigma-2 receptor; read-out: Sigma 2 IC50) | Ki (sigma-1 receptor [3]) | Ki [2] | other results
CN(CCCCCc1ccccc1)CCc1ccccc1 | 4.98 nM | – | – | Ki (sigma-1 receptor [1]): 0.25 nM; IC50 [2]: 1.3 nM
CNC(CCCCCc1ccccc1)CCCCCc1ccccc1 | – | – | – | IC50 [2]: 2.97 nM
c1ccc(CCCCCNCCc2ccccc2)cc1 | – | – | – | IC50 [2]: 3.66 nM
c1ccc(CCCCCN2CCCC2)cc1 | 69.7 nM | 0.76 nM | – | IC50 [2]: 4.95 nM
CN(CCCCCc1cccc(C(F)(F)F)c1)CCc1ccccc1 | 3.57 nM | 0.59 nM | – | –
CN(CCCCCc1ccccc1)CCc1cccc(C(F)(F)F)c1 | 14.4 nM | 1.74 nM | – | –
CN(CCCCC(=O)c1cccc(C(F)(F)F)c1)CCc1ccccc1 | 1.27 nM | 0.71 nM | – | –
CN(CCCCC(O)c1cccc(C(F)(F)F)c1)CCc1ccccc1 (centres unmarked) | 3.02 nM | 0.95 nM | – | –
CN1CCN(CCCCCc2ccccc2)CC1 | 78.9 nM | 1.44 nM | – | –
CN1CCC(CCCCCc2ccccc2)CC1 | 97.3 nM | 0.6 nM | – | –
O=[N+]([O-])c1ccc(CCCCCN2CCCCC2)cc1 | 9.91 nM | 0.16 nM | – | –
c1ccc2c(c1)C1CC2C(N2CCCCC2)C1 (centres unmarked) | – | – | – | Ki (sigma-1 receptor [1]): 0.13 nM; IC50 (sigma-2 receptor; read-out: Sigma 2 IC50, about 2 nM [^3 H]DTG with 200 nM (+)pentazocine, guinea pig brain membranes, pH 7.4, 30 minutes room temperature): 5.29 nM
c1ccc(CCCCCN2CCCC(Cc3ccccc3)C2)cc1 (centres unmarked) | 4.17 nM | 0.07 nM | – | –
c1ccc(CCCCCN2CCCCC2c2ccccc2)cc1 (centres unmarked) | 4.7 nM | 0.16 nM | – | –
CN(CCCC=C(c1ccccc1)c1ccccc1)CCc1ccccc1 | 40.8 nM | 0.9 nM | – | –
CN(CCCCC(c1ccccc1)c1ccccc1)CCc1ccccc1 | 31.5 nM | – | – | –
C(CCCNCCc1ccccc1)=C(c1ccccc1)c1ccccc1 | 142 nM | – | – | –
CCN(CC)CCCCC(c1ccccc1)c1ccccc1 | 51.2 nM | 1.42 nM | – | –
CCN(CC)CCCCCc1ccccc1 | 88.5 nM | 6.01 nM | – | –
c1ccc(Cc2cccc(CN3CCCCC3)c2)cc1 | 98.2 nM | 5.44 nM | – | –
c1ccc(CCCCCN2CCCCC2Cc2ccccc2)cc1 (centres unmarked) | 10.4 nM | 0.36 nM | – | –

SMILES | IC50 (sigma-2 receptor; read-out: Sigma 2 IC50) | Ki (sigma-1 receptor [3]) | Ki [2] | other results
CC(Cc1ccccc1)NCCCCCc1ccccc1 (centres unmarked) | – | 0.54 nM | – | IC50 (sigma-2 receptor): 10.9 nM
CC(Cc1ccccc1)NCCCCc1ccccc1 (centres unmarked) | – | 7.38 nM | – | IC50 (sigma-2 receptor): 47.5 nM
c1ccc(CNCCCN2CCN(c3ccccc3)CC2)cc1 | 101 nM | 1.96 nM | – | –
CC1CCN(CCCCCc2ccccc2)CC1 | 7.1 nM | 0.08 nM | – | –
CN1CCC(=CCCCCc2ccccc2)CC1 | 258 nM | 9.87 nM | – | –
c1ccc(CCNCCCCC(c2ccccc2)c2ccccc2)cc1 | 100 nM | 0.68 nM | – | –
CC1CCN(CCCC=C(c2ccccc2)c2ccccc2)CC1 | 25 nM | – | – | –
CC1CCN(CCCCC(c2ccccc2)c2ccccc2)CC1 | – | – | – | Ki (sigma-1 receptor [1]): 0.1 nM; IC50 (sigma-2 receptor; about 2 nM [^3 H]DTG with 200 nM (+)pentazocine, guinea pig brain membranes, pH 7.4, 30 minutes room temperature, read-out: Sigma 2 IC50): 16.7 nM
CC(C)=CCN1CCC2(C)c3cc(O)ccc3CC1C2C (single isomer, unassigned; (+)) [(+)pentazocine] | – | – | – | affinity for the sigma-1 site compared to the sigma-2 site (sigma-1 site): nearly two orders of magnitude higher affinity for the sigma-1 site compared to the sigma-2 site
OC(CCCN1CCN(c2ncc(F)cn2)CC1)c1ccc(F)cc1 (centres unmarked) [BMY-14802] | – | – | – | protective effects against NMDA-induced toxicity and seizures [4]: in vivo protective effects against NMDA-induced toxicity and seizures
O=C(CCCCN1CCC(c2ccc(Cl)cc2)CC1)c1ccc(Cl)c(Cl)c1 [Compound 1, 1,2,4-Dichlorophenyl-5-[4-(4-chlorophenyl)-1-piperidino]pentanone Hydrochloride] | – | – | 1.8 nM | –
COc1ccc(C(=O)CCCCN2CCC(c3ccccc3)CC2)cc1 [Compound 2, 1-(4-Methoxyphenyl)-5-(4-phenyl-l-piperidino)pentanone Hydrochloride] | – | – | 0.8 nM | –
Clc1ccc(CCCCCN2CCCCC2)cc1 [Compound 3, N-[5-(4-Chlorophenyl)pentyl]piperidine Hydrochloride] | – | – | 2 nM | –
O=C(CCCCN1CCC(O)(c2ccc(Cl)cc2)CC1)c1ccc(F)cc1 [Compound 4] | – | – | 2.6 nM | –
O=C(CCCCN1CCC(c2ccccc2)CC1)c1ccc(F)cc1 [Compound 5] | – | – | 0.8 nM | –
O=C(CCCCN1CCC(c2ccccc2)CC1)c1ccccc1 [Compound 6] | – | – | 0.9 nM | –
O=C(CCCCN1CCC(c2ccccc2)CC1)c1ccc(Cl)cc1 [Compound 7] | – | – | 0.5 nM | –
O=C(CCCCN1CCC(c2ccccc2)CC1)c1cccc(Cl)c1 [Compound 8] | – | – | 1.1 nM | –
COc1cccc(C(=O)CCCCN2CCC(c3ccccc3)CC2)c1 [Compound 9] | – | – | 1 nM | –
O=C(CCCCN1CCC(c2ccc(Cl)cc2)CC1)c1ccc(Cl)cc1 [Compound 10] | – | – | 1.8 nM | –
O=C(CCCCN1CC=C(c2ccc(Cl)cc2)CC1)c1ccc(Cl)cc1 [Compound 12] | – | – | 4.3 nM | –

SMILES | IC50 (sigma-2 receptor; read-out: Sigma 2 IC50) | Ki (sigma-1 receptor [3]) | Ki [2] | other results
O=C(CCCCN1CC=C(c2ccc(F)cc2)CC1)c1ccc(Cl)cc1 [Compound 13] | – | – | 2 nM | –
c1ccc(CCCCCN2CCC(c3ccccc3)CC2)cc1 [Compound 14] | – | – | 0.9 nM | –
Clc1ccc(CCCCCN2CCC(c3ccccc3)CC2)cc1 [Compound 15] | – | – | 1.8 nM | –
COc1ccc(CCCCCN2CCC(c3ccccc3)CC2)cc1 [Compound 16] | – | – | 1.2 nM | –
O=C(CCCCN1CCCCC1)c1ccccc1 [Compound 17] | – | – | 25.2 nM | –
O=C(CCCCN1CCCCC1)c1ccc(F)cc1 [Compound 18] | – | – | 6.7 nM | –
O=C(CCCCN1CCCCC1)c1ccc(Cl)cc1 [Compound 19] | – | – | 1.2 nM | –
O=C(CCCCN1CCCCC1)c1cccc(Cl)c1 [Compound 20] | – | – | 3.8 nM | –
COc1ccc(C(=O)CCCCN2CCCCC2)cc1 [Compound 21] | – | – | 9.9 nM | –
COc1cccc(C(=O)CCCCN2CCCCC2)c1 [Compound 22] | – | – | 20.7 nM | –
c1ccc(CCCCCN2CCCCC2)cc1 [Compound 23] | – | – | 1.9 nM | –
COc1ccc(CCCCCN2CCCCC2)cc1 [Compound 24] | – | – | 4.7 nM | –
COc1cccc(CCCCCN2CCCCC2)c1 [Compound 25] | – | – | 10.7 nM | –
C=CCN1CCC2(C)c3cc(O)ccc3CC1C2C (centres unmarked) [NANM, N-allyl normetazocine] | – | – | – | affinity at PCP receptors (PCP receptors): significant affinity; affinity at typical opiate receptors (opiate receptors): low affinity
CCN(CC)CCOC(=O)C1(c2ccccc2)CCCC1 [caramiphen] | – | – | – | protective effects against NMDA-induced toxicity and seizures [4]: in vivo protective effects against NMDA-induced toxicity and seizures
c1cc2c(cc1CCCCCN1CCCCC1)OCO2 [drawing 25] | – | – | – | IC50 [2]: 2.25 nM
c1cc2c(cc1CCCCCN1CCCCC1)OCO2 [drawing 38] | 63.4 nM | 0.32 nM | – | –
OCCN1CCN(CCCN2c3ccccc3C=Cc3ccccc32)CC1 [opipramol] | – | – | – | affinity for sigma sites (sigma sites): potent sigma receptor ligand; protection against ischemia (gerbils): protect against ischemia in gerbils; biochemical effects on NMDA-type glutamate receptors [5]: biochemical effects consistent with modulation of the NMDA-type of glutamate receptors
O=C(CCCN1CCC2(CC1)C(=O)NCN2c1ccccc1)c1ccc(F)cc1 [spiperone] | – | – | – | affinity for sigma sites (sigma sites): essentially no affinity for sigma sites; affinity for DA sites (DA sites): high affinity for DA sites
